In ChEMBL document CHEMBL1141601, “Exploring the molecular basis of action of the passive antiglucocorticoid 21-hydroxy-6,19-epoxyprogesterone” (J Med Chem, 2008):
The source made the active and inactive calls.

Assays:
[1] = biological target: T1, Tyrosine aminotransferase (Homo sapiens) (UniProt P17735); assay: Induction of tyrosine aminotransferase
T1 sequence (whole entry): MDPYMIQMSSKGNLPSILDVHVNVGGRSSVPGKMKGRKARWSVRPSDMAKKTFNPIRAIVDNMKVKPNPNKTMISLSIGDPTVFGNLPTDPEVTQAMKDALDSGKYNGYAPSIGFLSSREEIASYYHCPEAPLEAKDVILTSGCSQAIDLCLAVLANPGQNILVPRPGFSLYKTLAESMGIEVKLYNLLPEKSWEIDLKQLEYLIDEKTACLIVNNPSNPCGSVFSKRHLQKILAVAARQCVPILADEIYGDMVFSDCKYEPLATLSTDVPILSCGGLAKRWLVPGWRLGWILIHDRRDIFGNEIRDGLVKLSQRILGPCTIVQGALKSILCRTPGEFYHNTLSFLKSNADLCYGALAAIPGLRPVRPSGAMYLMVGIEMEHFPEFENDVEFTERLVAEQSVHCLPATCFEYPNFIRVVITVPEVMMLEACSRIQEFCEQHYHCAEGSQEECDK

[2] = test system: Liver; assay: Effect on increase in glycogen deposition in rat liver; format: functional, tissue-based
[3] = biological target: T2, Glucocorticoid receptor (Homo sapiens) (UniProt P04150); assay: Activity at GR expressed in mouse L929 cells at 10 uM by transactivation assay relative to control; format: cell-based
T2 sequence (whole entry): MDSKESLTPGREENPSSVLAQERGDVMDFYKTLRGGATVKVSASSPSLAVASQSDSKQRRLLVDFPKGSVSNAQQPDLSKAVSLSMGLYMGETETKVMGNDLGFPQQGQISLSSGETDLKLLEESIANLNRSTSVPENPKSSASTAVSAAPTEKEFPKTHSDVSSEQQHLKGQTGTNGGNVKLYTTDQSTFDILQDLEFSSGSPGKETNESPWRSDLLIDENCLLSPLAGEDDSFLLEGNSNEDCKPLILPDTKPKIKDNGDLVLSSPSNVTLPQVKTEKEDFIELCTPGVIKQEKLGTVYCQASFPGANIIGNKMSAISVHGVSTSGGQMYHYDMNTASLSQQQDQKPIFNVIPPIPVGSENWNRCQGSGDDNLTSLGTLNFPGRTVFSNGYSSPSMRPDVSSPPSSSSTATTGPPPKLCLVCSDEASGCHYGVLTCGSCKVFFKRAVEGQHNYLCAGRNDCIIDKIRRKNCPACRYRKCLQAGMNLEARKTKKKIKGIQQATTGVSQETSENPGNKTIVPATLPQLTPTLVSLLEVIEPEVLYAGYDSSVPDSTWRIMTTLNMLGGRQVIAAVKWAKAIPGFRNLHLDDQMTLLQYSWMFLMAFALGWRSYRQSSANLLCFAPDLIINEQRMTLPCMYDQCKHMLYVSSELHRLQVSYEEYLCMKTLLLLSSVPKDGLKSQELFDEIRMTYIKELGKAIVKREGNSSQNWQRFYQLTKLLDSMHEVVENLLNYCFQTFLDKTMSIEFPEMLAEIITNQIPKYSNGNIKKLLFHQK

Measured: Activity

C[C@]12CC[C@H]3[C@@H](CC4OC[C@@]35CCC(=O)C=C45)[C@@H]1CC[C@@H]2C(=O)CO
inactive: [1] | [2] | [3]
